Experimental findings from PubChem BioAssay (NCI) are described below.

What all share (assay): NCI anticancer screen, dose series, 48 h
Test [1] has as its system LXFL 529 NSCLC.
Test [2] deals with DMS 273 small cell lung.
The subject of test [3] is KM20L2 colon.
Test [4] concerns SNB-78 CNS.
In test [5] the test system is HOP-18 NSCLC.
For test [6], the system named is M19-MEL melanoma.
Test [7] has as its system XF 498 CNS.
The test system of test [8] is RXF-631 renal.

Each structure is given as a SMILES string. Values joined by “and” are separate entries in the source; they are usually repeats but may differ in a detail not shown here. Equal entries are not always repeated.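 How tested: cells in 96-well plates exposed to compound for 48 hours at five concentrations. At the GI50, growth is halved. TGI marks complete inhibition of growth.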

On to `O=C1C[C@@H]2[C@@H](C=CC23CCCC3)N1O`, for which the TGI in test [1], in test [2], in test [3], in test [4], in test [5] and in test [6] was above 100 µM throughout.
As to `COc1cc2c(c(OC)c1OC)[C@@H]1CCCCC[C@@H]1CCC2=O`, the TGI in test [1], in test [2], in test [7], in test [3], in test [5] and in test [8] was above 100 µM throughout. The compound further returned a TGI in test [6] above 100 µM.
Take `COC(=O)C(C(=O)C(=O)Nc1nc2ccc(OC)cc2s1)c1cnc2ccccc2n1` (stereo not drawn): the TGI in test [1], in test [7], in test [3], in test [4] and in test [6] was above 100 µM each time.
`COc1cc(CNc2ccc(C)cc2)cc(OC)c1OC`: the TGI was above 100 µM in test [1]; above 100 µM in test [7]; 0.447 µM and 0.939 µM in test [3]; above 100 µM in test [4]; above 100 µM in test [5]; above 100 µM in test [6]. Also, the GI50 in test [7] is 1.98 µM; in test [5] it was 17.8 µM and > 60.8 µM.
Regarding `Cc1nsc2cc(Cl)n(C)c(=O)c12`, the TGI in test [1], in test [2], in test [7], in test [3], in test [4] and in test [8] was above 100 µM throughout. In test [6], this compound registered a TGI above 100 µM.
Turning to `O=C(CC(=O)n1nc(-c2ccccc2)c(N=Nc2ccc([N+](=O)[O-])cc2)c1-c1ccccc1)Nc1ccc(Cl)cc1`, the TGI in test [1] was above 100 µM; in test [2], above 100 µM; in test [7], 59.1 µM; in test [3], 24.9 µM; in test [4], above 100 µM; in test [5], above 100 µM. Further, the TGI in test [8] and in test [6] was above 100 µM each time.
In the case of `COc1cc(Br)c(/C=N/N=C(\N)NO)cc1OC`, the TGI in test [1] is above 100 µM; in test [2], above 100 µM; in test [7] it was 69.6 µM; in test [3], 47.2 µM; in test [4] it was above 100 µM; in test [5] it was above 100 µM. The TGI in test [8] was above 100 µM; in test [6], 76.2 µM.
Regarding `COc1cc(Br)c(C=Nc2cccc3ccc(OS(=O)(=O)c4ccc([N+](=O)[O-])cc4)cc23)cc1OC`, the TGI in test [1], in test [4] and in test [6] was above 100 µM each time.
For `COc1cc(C(C)c2cc3c(cc2OCCCCCOc2cc4c(cc2C(C)c2cc(OC)c(OC)c(OC)c2)OCO4)OCO3)cc(OC)c1OC` (stereo not drawn), the TGI in test [1], in test [2], in test [3] and in test [6] was above 100 µM each time.
Consider `CC1=CC(=O)c2ccc3c4ccccc4n(C)c3c2C1=O`, for which the TGI in test [1] was above 100 µM; in test [2] it was above 100 µM; in test [7], above 100 µM; in test [4], above 100 µM; in test [5] it was 42.2 µM; in test [6], 38.2 µM.
Consider `CC(=O)NC1=C(NCCO)C(=O)c2ccccc2C1=O`, for which the TGI was above 50 µM in test [1]; above 50 µM in test [2]; above 50 µM in test [7]; above 50 µM in test [3]; above 50 µM in test [4]; 18.6 µM in test [6].
